Here are results for 38 compounds from patent US20260055065A1, “PYRIDAZINONE COMPOUNDS WHICH MODULATE MUTANT PROTEINS FOR TREATING RESPIRATORY DISEASES” (The Hospital for Sick Children, priority 2022, published 2026).

Molecules are shown by their SMILES.

One test deals with T1, deltaF508 CFTR (Homo sapiens, UniProt P13569, DEL508-508).
T1 construct: host or cells: CFBE (cystic fibrosis bronchial-derived cell line)
T1 sequence (P13569 with tags, fused parts or gaps DEL508-508): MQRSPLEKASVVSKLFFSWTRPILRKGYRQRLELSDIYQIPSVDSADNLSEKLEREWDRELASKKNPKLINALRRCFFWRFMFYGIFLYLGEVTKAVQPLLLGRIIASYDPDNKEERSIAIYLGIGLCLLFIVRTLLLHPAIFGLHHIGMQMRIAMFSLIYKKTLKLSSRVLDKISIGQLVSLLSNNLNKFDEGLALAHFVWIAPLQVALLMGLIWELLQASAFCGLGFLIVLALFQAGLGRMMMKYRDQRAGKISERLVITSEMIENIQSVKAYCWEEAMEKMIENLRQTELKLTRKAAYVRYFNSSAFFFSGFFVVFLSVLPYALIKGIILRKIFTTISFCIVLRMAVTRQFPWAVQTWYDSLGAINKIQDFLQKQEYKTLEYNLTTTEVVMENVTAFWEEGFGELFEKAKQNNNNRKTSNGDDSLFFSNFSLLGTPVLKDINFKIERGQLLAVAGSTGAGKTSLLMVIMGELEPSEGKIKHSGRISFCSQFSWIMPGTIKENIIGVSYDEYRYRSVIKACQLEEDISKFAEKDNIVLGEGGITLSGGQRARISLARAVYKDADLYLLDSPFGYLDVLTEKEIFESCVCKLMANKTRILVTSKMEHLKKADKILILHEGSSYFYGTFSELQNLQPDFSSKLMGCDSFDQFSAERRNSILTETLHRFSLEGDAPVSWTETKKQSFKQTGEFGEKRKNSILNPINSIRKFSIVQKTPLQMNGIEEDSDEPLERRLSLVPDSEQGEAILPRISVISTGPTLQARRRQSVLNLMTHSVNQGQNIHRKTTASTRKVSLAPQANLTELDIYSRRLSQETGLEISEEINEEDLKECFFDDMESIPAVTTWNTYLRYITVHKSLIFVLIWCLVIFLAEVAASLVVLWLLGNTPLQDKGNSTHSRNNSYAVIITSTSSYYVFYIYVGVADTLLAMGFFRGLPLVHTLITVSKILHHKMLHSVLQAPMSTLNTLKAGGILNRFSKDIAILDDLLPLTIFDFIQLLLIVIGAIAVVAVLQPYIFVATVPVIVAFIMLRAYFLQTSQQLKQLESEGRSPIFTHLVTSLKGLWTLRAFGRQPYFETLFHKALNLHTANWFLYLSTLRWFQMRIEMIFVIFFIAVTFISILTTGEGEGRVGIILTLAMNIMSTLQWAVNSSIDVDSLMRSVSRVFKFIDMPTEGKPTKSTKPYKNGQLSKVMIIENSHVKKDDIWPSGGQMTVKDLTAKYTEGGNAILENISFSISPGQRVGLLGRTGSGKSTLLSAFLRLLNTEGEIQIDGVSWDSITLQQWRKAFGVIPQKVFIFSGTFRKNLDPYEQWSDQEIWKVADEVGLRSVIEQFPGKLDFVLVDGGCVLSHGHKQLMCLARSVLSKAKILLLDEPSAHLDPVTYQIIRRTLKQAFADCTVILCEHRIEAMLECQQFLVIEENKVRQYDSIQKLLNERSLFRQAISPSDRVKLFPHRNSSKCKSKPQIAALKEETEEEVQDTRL
Briefly: CFBE potentiator assay (FLIPR membrane potential, temperature-rescued). It counts as cell-based. The settings on record: CFBE cells, 3 micromolar forskolin; bin 1 nM-100 nM; read-out: CFBE potentiator EC50 range. Here is the method:
Cell culture: HEK293 cells stably expressing human deltaF508 CFTR were cultured in DMEM/F12 medium containing 10% fetal bovine serum (FBS) and 600 micrograms/mL geneticin. For functional CFTR assays, cryo-preserved cells were quickly thawed in a 37° C. water bath, diluted with warm DMEM/F12 medium containing 10% FBS, spun down at 300×g for 5 mins and resuspended in the same medium at a density of 300,000 cells/mL. A cystic fibrosis bronchial-derived cell line complemented with a 4.7 Kb deltaF508 CFTR cDNA (“CFBE”) was obtained from Dr. Dieter Gruenert under a license from UCSF. These cells were cultured in MEM with Earle's salt (Invitrogen)supplemented with 10% fetal bovine serum (Invitrogen) and 300 micrograms/mL hygromycin (Millipore). CFBE cells were grown on flasks coated with a fibronectin solution containing LHC basal medium (Invitrogen), 0.001% bovine serum albumin (Sigma), 1% v/v Vitrogen 100 (BD Bioscience) and 10 micrograms/mL human fibronectin (Life Technologies). All cells were grown at 37° C. and 5% CO2 unless specified for an assay.
CFBE potentiator assay: CFBE cells were dissociated for 10 mins at 37° C. with Hank's balanced salt solution containing 0.6 mM EDTA and 10% of a 0.25% Trypsin/EDTA solution (all from Life Technologies). An equal amount of CFBE cell growth medium (see Cell culture above) was then added to the flasks and cells were spun at 500×g for 10 mins. Cells were re-suspended in cell medium at a density of 150,000 cells/mL and plated in 384-well black, poly-D-Lysine-coated plates (7,500 cells/well). Cells were then grown at 37° C., 5% CO2 for a total of 6-8 days to allow differentiation. Cell medium was changed every 2-3 days. The day before each experiment, culture medium was removed, fresh culture medium was added and cells were placed at 30° C., 5% CO2 for 18-24 hrs to allow temperature rescue of delF508 CFTR. Potentiation activity was measured as described above for HEK cells except cells were stained for exactly 60 mins, compounds (or DMSO for negative control) were mixed with assay buffer containing 3 micromolar forskolin, and the positive control wells had assay buffer containing 3 micromolar forskolin and 9 micromolar VX-770 (Selleckchem).
Data analysis: CFTR activity was defined as maximum fluorescence signal after addition minus baseline fluorescence. All data were normalized to each plate's positive and negative controls and expressed as percent responses. Concentration response curves were analyzed by fitting the data to a 4-parameter logistic equation in Microcal's Origin or IDBS' Activity Base software.
As to `Nc1c(N2CCCCC2)c(-c2ccccc2)nn(-c2ccc(Cl)c(O)c2)c1=O`, the EC50 fell in the range of 1 to 100 nM.

Turning to `Nc1c(N2CCCC2)c(-c2ccc(F)cc2)nn(-c2ccc(Cl)c(O)c2)c1=O`, the EC50 was 1 to 100 nM.

For the compound `Nc1c(N2CCCC2)c(-c2ccc(F)cc2)nn(-c2ccc(F)c(O)c2)c1=O`, the EC50 was 1 to 100 nM.

As for `CC(C)c1ccc(-n2nc(-c3ccc(F)cc3)c(N3CCCC3)c(N)c2=O)cc1O`, the EC50 is 1 to 100 nM.

Regarding `Cc1ccc(-n2nc(-c3ccc(F)cc3)c(N3CCCC3)c(N)c2=O)cc1O`, the EC50 was in the range of 1 to 100 nM.

Take `Nc1c(N2CCCCC2)c(-c2ccccc2)nn(-c2ccc(C(F)(F)F)c(O)c2)c1=O`: the EC50 lay in the range of 1 to 100 nM.

With `Nc1c(N2CCCCC2)c(-c2ccc(F)cc2)nn(-c2ccc(C(F)(F)F)c(O)c2)c1=O`, the EC50 was in the range of 1 to 100 nM.

Regarding `Nc1c(N2CCCCC2)c(-c2ccc(F)cc2)nn(-c2cccc(O)c2)c1=O`, the EC50 lay in the range of 1 to 100 nM.

Take `Nc1c(N2CCCC2)c(-c2ccccc2)nn(-c2ccc(Cl)c(O)c2)c1=O`: the EC50 fell in the range of 1 to 100 nM.

Consider `CC(C)c1ccc(-n2nc(-c3ccc(F)cc3)c(N3CCCCC3)c(N)c2=O)cc1O`, for which the EC50 lay in the range of 1 to 100 nM.

`CC(C)(C)c1ccc(-n2nc(-c3ccccc3)c(N3CCCC3)c(N)c2=O)cc1O`: the EC50 was 1 to 100 nM.

Take `Nc1c(N2CCCCC2)c(-c2ccc(F)cc2)nn(-c2ccc(F)c(O)c2)c1=O`: the EC50 is 1 to 100 nM.

For the compound `Cc1ccc(-n2nc(-c3ccccc3)c(N3CCCCC3)c(N)c2=O)cc1O`, the EC50 was in the range of 1 to 100 nM.

`Cc1ccc(-n2nc(-c3ccc(F)cc3)c(N3CCCCC3)c(N)c2=O)cc1O`: the EC50 fell in the range of 1 to 100 nM.

Take `CC(C)c1ccc(-n2nc(-c3ccccc3)c(N3CCCCC3)c(N)c2=O)cc1O`: the EC50 fell in the range of 1 to 100 nM.

As to `Nc1c(N2CCCC2)c(-c2ccccc2)nn(-c2cccc(O)c2)c1=O`, the EC50 fell in the range of 1 to 100 nM.

Take `CC(C)(C)c1ccc(-n2nc(-c3ccccc3)c(N3CCCCC3)c(N)c2=O)cc1O`: the EC50 lay within 1 to 100 nM.

Regarding `Nc1c(N2CCCC2)c(-c2ccc(F)cc2)nn(-c2ccc(C(F)(F)F)c(O)c2)c1=O`, the EC50 lay within 1 to 100 nM.

Consider `Nc1c(N2CCCCC2)c(-c2ccnc(C(F)(F)F)c2)nn(-c2cccc(O)c2)c1=O`, for which the EC50 is 1 to 100 nM.

On to `CC(C)(C)c1ccc(-n2nc(-c3ccc(F)cc3)c(N3CCCC3)c(N)c2=O)cc1O`, for which the EC50 lay in the range of 1 to 100 nM.

Turning to `CC(C)c1ccc(-n2nc(-c3ccccc3)c(N3CCCC3)c(N)c2=O)cc1O`, the EC50 lay within 1 to 100 nM.

In the case of `Nc1c(N2CCCCC2)c(-c2cccnc2)nn(-c2cccc(O)c2)c1=O`, the EC50 lay in the range of 1 to 100 nM.

Regarding `Nc1c(-n2cccn2)c(-c2ccccc2)nn(-c2cccc(O)c2)c1=O`, the EC50 fell in the range of 1 to 100 nM.

With `Nc1c(N2CCC2)c(-c2ccccc2)nn(-c2cccc(O)c2)c1=O`, the EC50 is 1 to 100 nM.

As to `Nc1c(N2CCCCC2)c(-c2ccccc2)nn(-c2cccc(O)c2)c1=O`, the EC50 was 1 to 100 nM.

For `Nc1c(N2CCCCC2)c(-c2ccncc2)nn(-c2cccc(O)c2)c1=O`, the EC50 was in the range of 1 to 100 nM.

Regarding `CC(C)(C)c1ccc(-n2nc(-c3ccc(F)cc3)c(N3CCCCC3)c(N)c2=O)cc1O` [drawing 37], the EC50 fell in the range of 1 to 100 nM.

Turning to `Cc1ccccc1-c1nn(-c2cccc(O)c2)c(=O)c(N)c1N1CCCCC1` [drawing 38], the EC50 is 1 to 100 nM.

With `CN(C)c1c(-c2ccccc2)nn(-c2cccc(O)c2)c(=O)c1N` [drawing 45], the EC50 lay in the range of 1 to 100 nM.

Staying with this test, now noted: CFBE cells, 3 micromolar forskolin; bin 100 nM-1 μM; read-out: CFBE potentiator EC50 range.
For the compound `Nc1c(N2CCCCC2)c(-c2ccccn2)nn(-c2cccc(O)c2)c1=O`, the EC50 is 100 to 1000 nM.

For the compound `Nc1c(N2CCOCC2)c(-c2ccccc2)nn(-c2cccc(O)c2)c1=O`, the EC50 lay in the range of 100 to 1000 nM.

As for `Nc1c(N2CCCCC2)c(-c2ccccc2)nn(CC(O)C(F)(F)F)c1=O` (centres unmarked), the EC50 fell in the range of 100 to 1000 nM.

With `CC(CO)n1nc(-c2ccccc2)c(N2CCCCC2)c(N)c1=O` (centres unmarked), the EC50 was 100 to 1000 nM.

For the compound `Nc1c(N2CCCCC2)c(-c2ccccc2)nn(Cc2ccccc2)c1=O`, the EC50 fell in the range of 100 to 1000 nM.

Staying with this test, now noted: CFBE cells, 3 micromolar forskolin; bin 1 μM-10 μM; read-out: CFBE potentiator EC50 range.
Consider `Nc1c(N2CCCCC2)c(-c2ccccc2)nn(CCCO)c1=O`, for which the EC50 fell in the range of 1000 to 10000 nM.

For the compound `N#CCCn1nc(-c2ccccc2)c(N2CCCCC2)c(N)c1=O`, the EC50 was 1000 to 10000 nM.

The test is the same for the next values; noted with them: CFBE cells, 3 micromolar forskolin; read-out: CFBE potentiator assay pot. pEC50 (converted).
As for `Cc1ccccc1-c1nn(-c2cccc(O)c2)c(=O)c(N)c1N1CCCCC1` [Compound 15, 4-amino-2-(3-hydroxyphenyl)-5-(piperidin-1-yl)-6-(o-tolyl)pyridazin-3(2H)-one], the EC50 is 15.8 nM.

Consider `CN(C)c1c(-c2ccccc2)nn(-c2cccc(O)c2)c(=O)c1N` [Compound 21, 4-amino-5-(dimethylamino)-2-(3-hydroxyphenyl)-6-phenylpyridazin-3(2H)-one], for which the EC50 was 20 nM.
